In brackets after ≈: the same amount, converted by molar mass. Several values for one entry are separate records, joined by “and”; a condition that tells them apart may be missing. Equal entries are not always repeated. Where two headings read alike, the source gives them in different places.
Columns and labels:
[1] = test system: Strept. viridians; experiment: Broth microdilution MIC; format: cell-based; details: Strept. viridians; 2-3 isolates/organism; read-out: MIC
[2] = test system: LPS-induced MCP-1 release; experiment: LPS-induced MCP-1 release, NR8383 cells, ELISA; format: cell-based; details: Rattus norvegicus, 8-hour exposure, read-out: IC50, inhibition of LPS-induced MCP-1 release
[3] = test system: Staph. aureus (MRSA); experiment: Broth microdilution MIC; format: cell-based; details: Staphylococcus aureus; Staph. aureus (MRSA); 2-3 isolates/organism; read-out: MIC
[4] = test system: Entero. faecalis; experiment: Broth microdilution MIC; format: cell-based; details: Enterococcus faecalis; Entero. faecalis; 2-3 isolates/organism; read-out: MIC
[5] = test system: Entero. faecium (VRE); experiment: Broth microdilution MIC; format: cell-based; details: Enterococcus faecium; Entero. faecium (VRE); 2-3 isolates/organism; read-out: MIC
[6] = test system: Providencia stuartii; experiment: Broth microdilution MIC; format: cell-based; details: 2-3 isolates/organism, read-out: MIC
[7] = test system: HCoV-OC43; experiment: Virus yield reduction assay, HCoV-OC43 on RD cells; format: cell-based; details: Betacoronavirus 1, 48 hours post-infection
Protocol: For these assays, brilacidin was included during viruses infection and post infection stages. The EC50 values were calculated from best-fit dose response curves with variable slope in Prism 8.

[8] = test system: Pseud. aeruginosa; experiment: Broth microdilution MIC; format: cell-based; details: Pseudomonas aeruginosa; Pseud. aeruginosa; 2-3 isolates/organism; read-out: MIC
[9] = test system: LPS-induced TNF-α release; experiment: LPS-induced TNF-α release, THP-1 cells, ELISA; format: cell-based; details: Homo sapiens, 8-hour exposure, read-out: IC50, inhibition of LPS-induced TNF-α release
[10] = test system: human erythrocytes (RBCs)
[11] = test system: SARS-CoV-2; format: cell-based; details: Calu-3; MOI 0.05; 24 hpi
[12] = test system: Staph. saprophyticus; experiment: Broth microdilution MIC; format: cell-based; details: Staphylococcus saprophyticus; Staph. saprophyticus; 2-3 isolates/organism; read-out: MIC
[13] = test system: Serratia marcescens; experiment: Broth microdilution MIC; format: cell-based; details: 2-3 isolates/organism, read-out: MIC
[14] = test system: luciferase-expressing pseudotyped virus (rVSV) containing the SARS-CoV-2 spike protein; format: cell-based
[15] = test system: stationary phase cultures of MSSA and MRSA; experiment: Time-kill against stationary phase cultures of MSSA and MRSA; format: cell-based, Staph. aureus; details: stationary phase MSSA and MRSA; 2×MIC
[16] = test system: SARS-CoV-2 (Washington strain 2019-nCoV/USA-WA1/2020); experiment: microbe, parasite or virus in culture; format: cell-based; details: Severe acute respiratory syndrome coronavirus 2, Vero
[17] = test system: human liver cell line (HepG2)
[18] = test system: Acinetobacter spp.; experiment: Broth microdilution MIC; format: cell-based; details: 2-3 isolates/organism
[19] = molecular target: human PDE4B2 (Homo sapiens, UniProt Q07343); experiment: PDE-Glo phosphodiesterase assay, PDE4B2; details: IC50, inhibition of human PDE4B2, 1 μM cAMP substrate
[20] = test system: Acute Bacterial Skin and Skin Structure Infections (ABSSSI); experiment: Phase 2 trials in ABSSSI; format: in vivo, human; details: single dose and 3-day regimen, IV infusion; Phase 2b CTIX-BRI-204
Description: Further details on clinical success rates by baseline pathogen for the ABSSSI Phase 2b study are presented in FIG. 26 (blank cells=no participants presented with the specified baseline pathogen. EOT: End of Treatment. STFU: Short-Term Follow-Up).

[21] = test system: Vero cells; details: 24 hours
[22] = in vitro; details: African green monkey
[23] = test system: Citrobacter fruendi; experiment: Broth microdilution MIC; format: cell-based; details: Citrobacter fruendi; 2-3 isolates/organism; read-out: MIC
[24] = test system: Strept. pneumoniae; experiment: Broth microdilution MIC; format: cell-based; details: Streptococcus pneumoniae; Strept. pneumoniae; 2-3 isolates/organism; read-out: MIC
[25] = test system: SARS-CoV-2; details: Calu-3; 10 μM; 24 hpi
[26] = test system: SARS-CoV-2; experiment: SARS-CoV-2 testing in Caco-2 cells and primary lung fibroblasts; format: cell-based; details: Caco-2 cells and primary lung fibroblasts from human donors; data not shown
[27] = test system: Strept. agalactiae; experiment: Broth microdilution MIC; format: cell-based; details: Streptococcus agalactiae; Strept. agalactiae; 2-3 isolates/organism; read-out: MIC
[28] = test system: Venezuelan equine encephalitis virus (VEEV) TC83; format: cell-based; details: U87MG cells; 10 μM; virus treated only; 24 hpi
[29] = test system: Escherichia coli; experiment: Broth microdilution MIC; format: cell-based; details: 2-3 isolates/organism, read-out: MIC
[30] = test system: LPS-induced TNF-α release; experiment: LPS-induced TNF-α release, NR8383 cells, ELISA; format: cell-based; details: Rattus norvegicus, 8 h; read-out: IC50, inhibition of LPS-induced TNF-α release
[31] = molecular target: human PDE3A (Homo sapiens, UniProt Q14432); experiment: PDE-Glo phosphodiesterase assay, PDE3A; format: biochemical; details: 1 μM cAMP substrate; read-out: IC50, inhibition of human PDE3A
[32] = test system: embryonic mouse cell line (NIH/3T3)
[33] = test system: Klebsiella oxtoca; experiment: Broth microdilution MIC; format: cell-based; details: Klebsiella oxtoca; 2-3 isolates/organism; read-out: MIC
[34] = test system: Rift Valley fever virus (RFFV); format: cell-based; details: Vero; 10, 25 and 50 μM; virus treated only; 24 hpi

human PDE3A, sequence (Q14432 whole entry): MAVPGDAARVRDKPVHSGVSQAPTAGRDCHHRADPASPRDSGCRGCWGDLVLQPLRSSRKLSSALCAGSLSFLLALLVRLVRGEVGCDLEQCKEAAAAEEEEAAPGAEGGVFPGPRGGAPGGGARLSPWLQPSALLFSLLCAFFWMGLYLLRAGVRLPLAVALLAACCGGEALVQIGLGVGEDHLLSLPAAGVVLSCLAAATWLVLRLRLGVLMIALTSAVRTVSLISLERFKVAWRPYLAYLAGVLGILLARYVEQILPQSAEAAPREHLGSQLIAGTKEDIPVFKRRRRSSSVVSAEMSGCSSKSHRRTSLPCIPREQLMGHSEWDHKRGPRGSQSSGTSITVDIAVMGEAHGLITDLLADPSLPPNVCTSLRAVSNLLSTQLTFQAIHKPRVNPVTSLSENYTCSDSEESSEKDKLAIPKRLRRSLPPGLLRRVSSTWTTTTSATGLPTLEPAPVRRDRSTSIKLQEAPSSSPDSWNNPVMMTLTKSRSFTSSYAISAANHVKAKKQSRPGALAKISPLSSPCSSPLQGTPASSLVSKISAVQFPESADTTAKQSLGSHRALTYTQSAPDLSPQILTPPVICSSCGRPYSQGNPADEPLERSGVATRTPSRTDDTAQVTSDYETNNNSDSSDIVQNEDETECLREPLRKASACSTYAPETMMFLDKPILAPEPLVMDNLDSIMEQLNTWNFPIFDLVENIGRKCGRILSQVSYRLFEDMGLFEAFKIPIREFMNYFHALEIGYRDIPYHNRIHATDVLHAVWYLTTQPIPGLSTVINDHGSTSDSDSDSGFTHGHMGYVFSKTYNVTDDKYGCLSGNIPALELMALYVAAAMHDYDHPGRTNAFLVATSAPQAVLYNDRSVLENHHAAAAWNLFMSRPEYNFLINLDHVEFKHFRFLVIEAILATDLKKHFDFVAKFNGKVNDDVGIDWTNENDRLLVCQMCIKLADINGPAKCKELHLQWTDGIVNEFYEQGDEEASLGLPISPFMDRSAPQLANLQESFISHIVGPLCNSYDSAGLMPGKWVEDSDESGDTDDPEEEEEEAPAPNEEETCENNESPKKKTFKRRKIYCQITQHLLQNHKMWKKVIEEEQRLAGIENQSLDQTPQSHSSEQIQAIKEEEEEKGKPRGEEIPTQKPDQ
human PDE4B2, sequence (Q07343 1-564 isoform Q07343-2): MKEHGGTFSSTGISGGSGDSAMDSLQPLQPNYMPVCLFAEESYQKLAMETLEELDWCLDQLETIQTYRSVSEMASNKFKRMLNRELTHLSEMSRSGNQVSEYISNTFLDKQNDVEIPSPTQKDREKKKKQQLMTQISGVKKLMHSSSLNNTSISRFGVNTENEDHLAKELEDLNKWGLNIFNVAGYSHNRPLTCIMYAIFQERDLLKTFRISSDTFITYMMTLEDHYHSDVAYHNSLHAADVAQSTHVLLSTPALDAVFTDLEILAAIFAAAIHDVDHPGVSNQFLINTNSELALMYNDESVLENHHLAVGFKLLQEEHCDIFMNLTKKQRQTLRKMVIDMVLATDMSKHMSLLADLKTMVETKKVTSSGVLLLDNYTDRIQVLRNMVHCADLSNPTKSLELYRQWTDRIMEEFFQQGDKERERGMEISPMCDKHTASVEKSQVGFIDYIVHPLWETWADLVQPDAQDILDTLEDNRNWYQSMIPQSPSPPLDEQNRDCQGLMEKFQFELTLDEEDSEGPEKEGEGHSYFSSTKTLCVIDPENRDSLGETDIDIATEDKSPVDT

N=C(N)NCCCCC(=O)Nc1cc(C(F)(F)F)cc(NC(=O)c2cc(C(=O)Nc3cc(C(F)(F)F)cc(NC(=O)CCCCNC(=N)N)c3OC3CCNC3)ncn2)c1OC1CCNC1 (stereo not drawn) [brilacidin]
MIC [1]: 2 to 8 µg/mL (≈ 2.13 to 8.54 µM) | IC50 [2]: 0.75 µM | MIC [3]: 0.5 to 1 µg/mL (≈ 0.534 to 1.07 µM) | MIC [4]: 1 µg/mL (≈ 1.07 µM) | MIC [5]: 1 µg/mL (≈ 1.07 µM) | MIC [6]: 16 to 64 µg/mL (≈ 17.1 to 68.3 µM) | EC50 [7]: 4.81 ± 0.95 µM | MIC [8]: 32 µg/mL (≈ 34.2 µM) | IC50 [9]: 23.4 µM | Selectivity (EC50/MIC) RBCs [10]: 558 | inhibition of infectious titer, each drug alone [11]: up to 90% | MIC [12]: 0.25 to 0.5 µg/mL (≈ 0.267 to 0.534 µM) | MIC [13]: 32 µg/mL (≈ 34.2 µM) | inhibition of pseudovirus (rVSV) attachment and entry [14]: inhibited the pseudovirus at both concentrations tested in a comparable manner | time-kill at >10^3 Log10 Reductions [15]: ≤ 2 hours | inhibition at 10 µM ([16]; read-out: inhibition of SARS-CoV-2 (plaque assay)): 72% | inhibition at 10 µM ([16]; read-out: inhibition of infectious viral titer): 53% | Selectivity (EC50/MIC) HepG2 [17]: 1,031 | MIC [18]: 4 µg/mL (≈ 4.27 µM) | IC50 [19]: ~3 µM and 3 µM | efficacy (early clinical response) [20]: comparable to that a 7-day regimen of daptomycin | cell viability compared to the DMSO vehicle control ([21]; concentrations higher than 40 μM): dose-dependent, statistically significant decrease in cell viability | cell viability compared to the DMSO vehicle control ([21]; up to 40 μM): did not affect cell viability | CC50 [22]: 79.5 ± 2.42 µM | MIC [23]: 2 to 4 µg/mL (≈ 2.13 to 4.27 µM) | MIC [24]: 4 to 8 µg/mL (≈ 4.27 to 8.54 µM) | decrease in the viral genomic copies [25]: 33% | inhibitory properties in ACE2 positive cell lines [26]: supported brilacidin's inhibitory properties | MIC [27]: 2 µg/mL (≈ 2.13 µM) | infectious viral titer compared to the DMSO-control [28]: statistically significant reduction | MIC [29]: 1 to 2 µg/mL (≈ 1.07 to 2.13 µM) | IC50 [30]: 0.442 µM | IC50 [31]: ~1.8 µM and 1.8 µM | Selectivity (EC50/MIC) 3T3 [32]: 430 | MIC [33]: 2 to 8 µg/mL (≈ 2.13 to 8.54 µM) | inhibition compared to the DMSO-control [34]: dose-dependent inhibition

Source: patent US11771694B2, “Arylamide compounds for treatment and prevention of viral infections” (priority 2020, dated 2023)
